17 compounds from patent US20240150377A1, “MODULATORS OF CYSTIC FIBROSIS TRANSMEMBRANE CONDUCTANCE REGULATOR” (VERTEX PHARMACEUTICALS INCORPORATED, priority 2020, published 2024) can be followed below.

Read-outs that look alike come from different tables or passages of the source. Some results are limits rather than exact numbers.

For data set [1] the following is noted: 13-membered ring.
The target of data set [2] is T1, CFTR (Homo sapiens, UniProt P13569, DEL508-508).
T1 construct: endogenous in cells; host or cells: primary human bronchial epithelial cells from CF subjects (F508del/MF-HBE), differentiated at air-liquid interface
The data set can be described thus: HBE assay: Ussing chamber assay of CFTR-mediated short-circuit currents. The format is cell-based. As to conditions: for EC50: read-out: HBE EC50. The gist of the method: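 CFTR-mediated Isc (μA/cm²) equals the peak response to apical 20 μM forskolin minus the residual after a 20 μM each BPO/GlyH-101/CFTR inhibitor 172 cocktail, recorded in Ussing chambers at Vhold 0 mV, 37 °C, pH 7.4, with 30 μM apical amiloride. Cells were F508del/MF HBE cultures preincubated 18-24 h with corrector (concentration range or 10 μM) plus 1 μM ivacaftor in 20% human serum.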

Data set [3] addresses T1, CFTR. The data set can be described thus: HBE2 assay: Ussing chamber assay of CFTR-mediated short-circuit currents. The format is cell-based. As to conditions: F508del/MF-HBE cells, with 44 nM potentiator, 18-24 hours, 20% human serum. The gist of the method:
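F508del/MF-HBE cultured >14 days at air-liquid interface, mounted in Ussing chambers; transepithelial short-circuit current recorded under voltage clamp (Vhold=0 mV) at 37 °C. CFTR-mediated ISC (μA/cm^2) taken as peak forskolin response relative to steady-state current after inhibition; corrector activity assessed this way.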

Data set [4] deals with CFTR (Homo sapiens, UniProt P13569). The data set can be described thus: Membrane potential dye, Enteroid Assay A. As to conditions: Table 6; for Ent. A Max Activity: chloride transport as % of triple combination control (Enteroid Assay A); for EC50: human enteroid cells, 18-24 hours, acute 10 μM forskolin and 300 nM ivacaftor, read-out: Ent. A EC50. The format is cell-based. Put shortly:
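Human intestinal enteroids incubated 18-24 h at 37 °C with test compound, then loaded with 20 μM methyl oxonol (with CaCC inhibitors). Chloride transport triggered in chloride-free buffer with 10 μM forskolin, 100 μM IBMX, 300 nM Compound III; fluorescence read 15 min, expressed as % of a triple-combination corrector/potentiator control.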

Where [5] appears, read: HBE assay, read-out: HBE Max activity (%).

T1 sequence (P13569 with tags, fused parts or gaps DEL508-508): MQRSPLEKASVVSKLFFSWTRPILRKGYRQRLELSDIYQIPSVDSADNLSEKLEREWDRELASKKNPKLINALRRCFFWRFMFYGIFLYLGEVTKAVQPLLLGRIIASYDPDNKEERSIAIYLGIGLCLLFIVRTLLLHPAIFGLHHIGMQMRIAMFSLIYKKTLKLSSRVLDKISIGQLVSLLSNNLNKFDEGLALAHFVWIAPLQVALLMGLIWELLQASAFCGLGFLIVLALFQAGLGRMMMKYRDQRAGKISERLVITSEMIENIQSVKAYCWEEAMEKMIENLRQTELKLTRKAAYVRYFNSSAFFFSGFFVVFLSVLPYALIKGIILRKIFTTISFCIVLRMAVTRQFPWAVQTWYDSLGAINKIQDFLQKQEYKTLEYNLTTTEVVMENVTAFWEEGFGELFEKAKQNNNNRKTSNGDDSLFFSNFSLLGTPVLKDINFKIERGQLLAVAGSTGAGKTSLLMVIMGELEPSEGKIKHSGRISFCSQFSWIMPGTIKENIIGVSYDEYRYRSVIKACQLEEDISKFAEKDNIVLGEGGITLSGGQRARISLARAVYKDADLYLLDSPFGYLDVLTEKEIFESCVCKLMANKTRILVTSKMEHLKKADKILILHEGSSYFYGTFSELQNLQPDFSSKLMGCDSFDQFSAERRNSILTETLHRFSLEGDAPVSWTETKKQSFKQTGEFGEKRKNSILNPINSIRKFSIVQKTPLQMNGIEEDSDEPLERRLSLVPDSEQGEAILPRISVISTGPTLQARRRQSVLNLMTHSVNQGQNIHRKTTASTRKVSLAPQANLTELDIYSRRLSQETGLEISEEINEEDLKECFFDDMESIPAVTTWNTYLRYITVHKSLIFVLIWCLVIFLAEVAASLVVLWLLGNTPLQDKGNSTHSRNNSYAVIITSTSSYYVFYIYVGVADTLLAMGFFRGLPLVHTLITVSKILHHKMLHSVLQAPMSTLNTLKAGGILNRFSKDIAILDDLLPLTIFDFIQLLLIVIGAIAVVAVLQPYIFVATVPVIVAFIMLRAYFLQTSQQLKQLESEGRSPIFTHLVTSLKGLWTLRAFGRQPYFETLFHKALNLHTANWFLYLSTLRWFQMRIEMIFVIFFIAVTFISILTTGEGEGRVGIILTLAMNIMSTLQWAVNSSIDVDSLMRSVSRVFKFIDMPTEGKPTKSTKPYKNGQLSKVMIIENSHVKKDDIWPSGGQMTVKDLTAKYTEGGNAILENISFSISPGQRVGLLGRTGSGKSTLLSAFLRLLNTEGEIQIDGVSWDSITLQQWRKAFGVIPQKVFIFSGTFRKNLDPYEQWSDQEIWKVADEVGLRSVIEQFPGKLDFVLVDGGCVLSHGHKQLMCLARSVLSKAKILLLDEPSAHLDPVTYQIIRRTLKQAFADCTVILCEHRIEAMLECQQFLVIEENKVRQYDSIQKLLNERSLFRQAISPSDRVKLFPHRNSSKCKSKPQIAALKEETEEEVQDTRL
Sequence of CFTR (Homo sapiens, UniProt P13569) (P13569 with tags, fused parts or gaps DEL508-508): as above

By EC50 is commonly meant the concentration at which the effect is half-maximal. `Cc1cccc(C)c1-c1cc2nc(n1)NS(=O)(=O)c1cccc(c1)C(=O)N(Cc1ncc(OC(C)C)cn1)[C@H](CCC(C)(C)C)CO2` [Compound 1296, (11R)-11-(3,3-Dimethylbutyl)-6-(2,6-dimethylphenyl)-12-[(5-isopropoxypyrimidin-2-yl)methyl]-2,2-dioxo-9-oxa-2λ^6-thia-3,5,12,19-tetrazatricyclo[12.3.1.14,8]nonadeca-1(18),4(19),5,7,14,16-hexaen-13-one] displayed a ring closure, isolated yield in data set [1] (from Cc1cccc(C)c1-c1cc(OC[C@@H](CCC(C)(C)C)NCc2ncc(OC(C)C)cn2)nc(NS(=O)(=O)c2cccc(C(=O)O)c2)n1, amide bond, CDMT/NMM, DMF, 29.6 mM, 21.0 h) of 60%. Further, the EC50 at CFTR [2] (HBE assay) was below 1000 nM. Moreover, the Emax at CFTR [2] (setting [5]) is above 60%. On CFTR [3], the “HBE2 Activity at 3 μM (%)” value is “+++ (+++ is >60+)”. Compound `Cc1cccc(C)c1-c1cc2nc(n1)NS(=O)(=O)c1cccc(c1)C(=O)N(Cc1ncc(N3CC(C)(C)C3)cn1)[C@H](CC(C)(C)C)CO2` [Compound 331] had a ring closure, isolated yield in data set [1] (from Cc1cccc(C)c1-c1cc(OC[C@@H](CC(C)(C)C)NCc2ncc(N3CC(C)(C)C3)cn2)nc(NS(=O)(=O)c2cccc(C(=O)O)c2)n1, amide bond, T3P/DIEA, MeCN, 34.5 mM, 0.0 °C, 2.5 h) of 53%. Also, on CFTR [2] (Table 11), the EC50 was below 1000 nM. For the same compound, the Emax on CFTR [2] (Table 11, read-out: HBE Max Activity (%)) was above 60%. Regarding `Cc1cccc(C)c1-c1cc2nc(n1)NS(=O)(=O)c1cccc(c1)C(=O)N(Cc1cncc(Cl)n1)[C@H](COC1CC1)CO2`, the ring closure, isolated yield in data set [1] (from Cc1cccc(C)c1-c1cc(OC[C@@H](COC2CC2)NCc2cncc(Cl)n2)nc(NS(=O)(=O)c2cccc(C(=O)O)c2)n1, amide bond, CDMT/NMM, DMF, 12.9 mM, 21.0 h) was determined as 97%. The compound `CCC(C)(C)CC1COc2cc(-c3c(C)cccc3C)nc(n2)NS(=O)(=O)c2cccc(c2)C(=O)N1Cc1cncc(N(C)C2CCC2)n1` (stereo not drawn) yielded a ring closure, isolated yield in data set [1] (from CCC(C)(C)CC(COc1cc(-c2c(C)cccc2C)nc(NS(=O)(=O)c2cccc(C(=O)O)c2)n1)NCc1cncc(N(C)C2CCC2)n1, amide bond, CDMT/NMM, DMF, 19.5 mM, 16.2 h) of 65%.

In turn, `Cc1cccc(C)c1-c1cc2nc(n1)NS(=O)(=O)c1cccc(c1)CN(C(=O)OC(C)(C)C)[C@H](CC(C)C)CO2` gave a ring closure, isolated yield in data set [1] (from Cc1cccc(C)c1-c1cc(OC[C@@H](CC(C)C)NC(=O)OC(C)(C)C)nc(NS(=O)(=O)c2cccc(COS(C)(=O)=O)c2)n1, amine bond, NaH, DMF, 3.92 mM, 25.0 °C) of 50%. In turn, `Cc1cccc(C)c1-c1cc2nc(n1)NS(=O)(=O)c1cccc(c1)C(=O)N(Cc1ccc3c(I)cn(C)c3n1)[C@H](CC(C)(C)C)CO2` returned a ring closure, isolated yield in data set [1] (from Cc1cccc(C)c1-c1cc(OC[C@@H](CC(C)(C)C)NCc2ccc3c(I)cn(C)c3n2)nc(NS(=O)(=O)c2cccc(C(=O)O)c2)n1, amide bond, 2-chloro-1-methylpyridinium iodide/DIEA, DMF, 35.1 mM, 16.0 h) of 61%.

Consider `Cc1cccc(C)c1-c1cc2nc(n1)NS(=O)(=O)c1cccc(c1)C(=O)N(CCC1CCN(C(=O)OC(C)(C)C)CC1)[C@H](CC(C)C)CO2`, for which, in data set [1] (from Cc1cccc(C)c1-c1cc(OC[C@@H](CC(C)C)NCCC2CCN(C(=O)OC(C)(C)C)CC2)nc(NS(=O)(=O)c2cccc(C(=O)O)c2)n1, amide bond, HATU/TEA, DMF, 125.0 mM, 25.0 °C, 1.0 h, 2 steps), the ring closure, isolated yield stood at 94%. Turning to `COCN1c2nc(cc(-c3c(C)cccc3C)n2)OC[C@@H](CC(C)(C)C)NC(=O)c2cccc(c2)S1(=O)=O`, in data set [1] (from COCN(c1nc(OC[C@H](N)CC(C)(C)C)cc(-c2c(C)cccc2C)n1)S(=O)(=O)c1cccc(C(=O)O)c1, amide bond, HATU/DIEA, DMF, 107.6 mM, 0.33 h), the ring closure, isolated yield stood at 39%. Turning to `Cc1cccc(C)c1-c1cc2nc(n1)NS(=O)(=O)c1cccc(c1)C(=O)N(C)CC(c1ccc(Br)cc1)O2` (stereo not drawn) [Compound 8, 10-(4-Bromophenyl)-6-(2,6-dimethylphenyl)-12-methyl-2,2-dioxo-9-oxa-2λ^6-thia-3,5,12,19-tetrazatricyclo[12.3.1.14,8]nonadeca-1(18),4(19),5,7,14,16-hexaen-13-one], the ring closure, isolated yield in data set [1] (from CNCC(Oc1cc(-c2c(C)cccc2C)nc(NS(=O)(=O)c2cccc(C(=O)O)c2)n1)c1ccc(Br)cc1, amide bond, HATU/DIEA, DMF, 29.7 mM, 25.0 °C, 2.0 h, 2 steps) was determined as 61%. For the same compound, at CFTR [4], the “Ent. A Max Activity” value is on record as “+++ (+++ is >60%)” and the concentration giving a half-maximal response (EC50) was below 1000 nM. Compound `Cc1cccc(C)c1-c1cc2nc(n1)NS(=O)(=O)c1cccc(c1)C(=O)N(C)CC(COCc1ccccc1)O2` (stereo not drawn) [Compound 99, 10-(benzyloxymethyl)-6-(2,6-dimethylphenyl)-12-methyl-2,2-dioxo-9-oxa-2λ^6-thia-3,5,12,19-tetrazatricyclo[12.3.1.14,8]nonadeca-1(18),4(19),5,7,14,16-hexaen-13-one] registered a ring closure, isolated yield in data set [1] (from CNCC(COCc1ccccc1)Oc1cc(-c2c(C)cccc2C)nc(NS(=O)(=O)c2cccc(C(=O)O)c2)n1, amide bond, HATU/DIEA, DMF, 33.6 mM, 25.0 °C, 0.25 h) of 58%. For the same compound, on CFTR [4], the “Ent. A Max Activity” value is on record as “++ (++ is 30-60%)” and the EC50 lay within 1000 to 3000 nM. For the compound `Cc1cccc(C)c1-c1cc2nc(n1)NS(=O)(=O)c1cccc(c1)C(=O)N(CCCO[Si](C)(C)C(C)(C)C)[C@H](CC(C)C)CO2`, in data set [1] (from Cc1cccc(C)c1-c1cc(OC[C@@H](CC(C)C)NCCCO[Si](C)(C)C(C)(C)C)nc(NS(=O)(=O)c2cccc(C(=O)O)c2)n1, amide bond, COMU/DIEA, DMF, 19.9 mM, 22.0 h), the ring closure, isolated yield worked out at 43%. In the case of `Cc1cccc(C)c1-c1cc2nc(n1)NS(=O)(=O)c1cccc(c1)C(=O)N(Cc1cncc(Cl)n1)[C@H](CC1CCCCC1)CO2`, in data set [1] (from Cc1cccc(C)c1-c1cc(OC[C@@H](CC2CCCCC2)NCc2cncc(Cl)n2)nc(NS(=O)(=O)c2cccc(C(=O)O)c2)n1, amide bond, CDMT/NMM, DMF, 20.4 mM, 16.2 h), the ring closure, isolated yield was 73%. The compound `Cc1cccc(C)c1-c1cc2nc(n1)NS(=O)(=O)c1cccc(c1)C(=O)N(CCC1(C(F)(F)F)CC1)[C@@H]1CN(C(=O)OC(C)(C)C)C[C@H]1O2` came in with a ring closure, isolated yield in data set [1] (from Cc1cccc(C)c1-c1cc(O[C@@H]2CN(C(=O)OC(C)(C)C)C[C@H]2NCCC2(C(F)(F)F)CC2)nc(NS(=O)(=O)c2cccc(C(=O)O)c2)n1, amide bond, COMU/DIEA, DMF, 10.6 mM, 72.0 h) of 92%. `Cc1cccc(C)c1-c1cc2nc(n1)NS(=O)(=O)c1cccc(c1)C(=O)N(C)CC(CNC(=O)OC(C)(C)C)O2` (stereo not drawn) [Compound 97, tert-Butyl N-[[6-(2,6-dimethylphenyl)-12-methyl-2,2,13-trioxo-9-oxa-2λ^6-thia-3,5,12,19-tetrazatricyclo[12.3.1.14,8]nonadeca-1(18),4(19),5,7,14,16-hexaen-10-yl]methyl]carbamate] came in with a ring closure, isolated yield in data set [1] (from CNCC(CNC(=O)OC(C)(C)C)Oc1cc(-c2c(C)cccc2C)nc(NS(=O)(=O)c2cccc(C(=O)O)c2)n1, amide bond, HATU/DIEA, DMF, 37.9 mM, 25.0 °C, 0.25 h) of 42%. Further, on CFTR [4], the “Ent. A Max Activity” value is on record as “++ (++ is 30-60%)” and the EC50 was in the range of 3000 to 30000 nM. As for `Cc1cccc(C)c1-c1cc2nc(n1)NS(=O)(=O)c1cccc(c1)C(=O)N(Cc1cncc(N3CCCC[C@H]3C)n1)C(CCC(C)(C)F)CO2` (stereo partly drawn), in data set [1] (from Cc1cccc(C)c1-c1cc(OCC(CCC(C)(C)F)NCc2cncc(N3CCCC[C@H]3C)n2)nc(NS(=O)(=O)c2cccc(C(=O)O)c2)n1, amide bond, CDMT/NMM, DMF, 19.8 mM, 16.0 h), the ring closure, isolated yield came to 54%. The compound `Cc1cccc(C)c1-c1cc2nc(n1)NS(=O)(=O)c1cccc(c1)C(=O)N(Cc1cccc(NC(=O)OC(C)(C)C)n1)[C@H](CC(C)(C)C)CO2` registered a ring closure, isolated yield in data set [1] (from Cc1cccc(C)c1-c1cc(OC[C@@H](CC(C)(C)C)NCc2cccc(NC(=O)OC(C)(C)C)n2)nc(NS(=O)(=O)c2cccc(C(=O)O)c2)n1, amide bond, HATU/DIEA, DMF, 16.0 h, 2 steps) of 31%.

As to `Cc1cccc(C)c1-c1cc2nc(n1)NS(=O)(=O)c1cccc(c1)C(=O)N(Cc1ncc(OC(C)C)cn1)[C@H](CC1CCC1)CO2` [Compound 1297, (11R)-11-(Cyclobutylmethyl)-6-(2,6-dimethylphenyl)-12-[(5-isopropoxypyrimidin-2-yl)methyl]-2,2-dioxo-9-oxa-2λ^6-thia-3,5,12,19-tetrazatricyclo[12.3.1.14,8]nonadeca-1(18),4(19),5,7,14,16-hexaen-13-one], the ring closure, isolated yield in data set [1] (from Cc1cccc(C)c1-c1cc(OC[C@@H](CC2CCC2)NCc2ncc(OC(C)C)cn2)nc(NS(=O)(=O)c2cccc(C(=O)O)c2)n1, amide bond, CDMT/NMM, DMF, 30.4 mM, 15.0 h) is 58%. In addition, the EC50 at CFTR [2] (HBE assay) and on CFTR [3] was below 1000 nM each time. The Emax at CFTR [2] (setting [5]) and at CFTR [3] (read-out: HBE2 Max activity (%)) was above 60% throughout. In addition, at CFTR [3], the “HBE2 Activity at 3 μM (%)” value is “+++ (+++ is >60+)”.
